According to patent US5989596A, “Compositions comprising a depigmenting agent consisting of sulfites and metabisulfites and plant extracts for use in inhibiting melanogenesis or for depigmenting” (Coletica, priority 1997, dated 1999):

Columns and labels:
[1] = Organoleptic (smell) and stability tests on storage, 4 weeks at 45° C.; type: physicochemical; conditions: pH 6.5, 4 weeks at 45° C.
Procedure: Organoleptic tests have even been carried out on 5% sodium sulfite solutions or with 10% of a mulberry extract or 10 or with 20% with a lemon extract. These tests were led over 4 weeks at 45° C. at pH 5.5 and 6.5.
Also, organoleptic tests are then carried out on 5% sodium metabisulfite solutions with or without either 20% of a saxifrage extract or 10% of a grapefruit extract. These tests were led over 4 weeks at 45° C. at pH 5.5 and 6.5.
Organoleptic tests were also carried out on 5% potassium sulfite solutions with or without either 20% of a grape extract, or 10% of an oughon extract. It is to be noted that oughon is also called Scutelaria. These tests were led over 4 weeks at 45° C. at pH 5.5 and 6.5.
Organoleptic tests are then carried out on 5% potassium metabisulfite solutions with or without either 10% of a saxifrage extract, or 5% of an oughon extract +10% of a grapefruit extract. These tests were also led over 4 weeks at 45° C. at pH 5.5 and 6.5.

isolated tyrosinase = experiment: In vitro test of the inhibition of isolated tyrosinase (rate of dopachrome formation from L-Dopa, 475 nm); type: biochemical
Text: It is known that tyrosinase is capable of catalyzing the formation of L-Dopaquinone and then dopachrome from L-Dopa. Now, dopachrome is a colored compound whose appearance is possible to follow by UV visible spectrophotometry at 475 nm. The use of an active capable of modifying the enzymatic activity manifests itself by a variation of the rate of appearance of this colored molecule.
The ratio of the rates of formation of dopachrome enable precisely determining the activations or the inhibitions obtained with the different molecules tested.
The anti-tyrosinase activity was measured, for various concentrations of this composition, by simple dilution with demineralized water.

[2] = biological target: T1, endogenous tyrosinase in melanocytes of human skin explants (Homo sapiens, UniProt P14679); experiment: Ex vivo tissue model on human skin explant, histochemical L-DOPA reaction (anti-tyrosinase activity); type: cell-based; conditions: 0.55% (w/v), with L-DOPA 0.05 M, 15 hours at 37° C.
T1 construct: oxidation of exogenous L-DOPA by endogenous tyrosinase; from tissue; host or cells: human abdominal skin explants from plastic surgery (melanocytes)
T1 sequence (P14679 19-529): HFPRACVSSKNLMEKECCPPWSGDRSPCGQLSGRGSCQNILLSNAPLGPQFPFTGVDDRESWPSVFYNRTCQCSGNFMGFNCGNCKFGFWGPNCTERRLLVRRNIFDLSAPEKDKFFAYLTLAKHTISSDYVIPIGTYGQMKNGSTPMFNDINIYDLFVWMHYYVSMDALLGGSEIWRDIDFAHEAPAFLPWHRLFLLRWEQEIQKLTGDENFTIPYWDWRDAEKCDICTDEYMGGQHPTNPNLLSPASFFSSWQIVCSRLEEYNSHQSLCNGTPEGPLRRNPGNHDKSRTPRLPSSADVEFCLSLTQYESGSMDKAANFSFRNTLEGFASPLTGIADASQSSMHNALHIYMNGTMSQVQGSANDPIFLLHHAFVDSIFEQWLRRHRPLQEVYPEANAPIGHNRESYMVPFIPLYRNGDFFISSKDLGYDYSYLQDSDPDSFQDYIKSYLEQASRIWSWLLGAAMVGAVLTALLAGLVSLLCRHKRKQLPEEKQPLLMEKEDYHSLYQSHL
Procedure: The oxidation of L-Dopa by the tyrosinase produces, in the melanocytes, a black pigment precursor of melanin which is easily detectable by optical microscopy with white light. The tyrosinase activity is determined by the intensity of the calorimetric reaction obtained.
A positive control and a negative control are also carried out in parallel.
The various products in the study are incubated in the presence of L-DOPA (0.05 M) for 15 hours at 37° C.
After fixing and inclusion in paraffin, the sections are colored with hemalun/eosin/saffron and with cresyl violet, they are then observed in white light by optical microscopy.
The tyrosinase activity is determined by the intensity of the calorimetric reaction obtained.

human melanocytes = conditions: J. Soc. Cosmeti. Chem. 42, 361-368 (1991); cited from earlier work

O=S([O-])S(=O)(=O)[O-].[Na+].[Na+] [sodium metabisulfite]
smell (organoleptic test) [1]: very strong smell
tyrosinase inhibition (in words) (isolated tyrosinase; concentration 0.01%): almost total
Results (inhibition) of tyrosinase (isolated tyrosinase; concentration level 0.1%): 100%
Results (inhibition) of tyrosinase (isolated tyrosinase; concentration level 1%): 100%
Results (inhibition) of tyrosinase (isolated tyrosinase; concentration level 10%): 100%

Oc1ccc(O)cc1 [hydroquinone]
inhibition of the formation of melanic pigments [2]: totally inhibits

O=S([O-])S(=O)(=O)[O-].[K+].[K+] [potassium metabisulfite]
Results (inhibition) of tyrosinase (isolated tyrosinase; concentration level 0.01%): more than 90%
Results (inhibition) of tyrosinase (isolated tyrosinase; concentration level 0.1%): 93.63%
Results (inhibition) of tyrosinase (isolated tyrosinase; concentration level 1%): 100%
Results (inhibition) of tyrosinase (isolated tyrosinase; concentration level 10%): 100%

O=S([O-])[O-].[K+].[K+] [potassium sulfite]
smell (organoleptic test) [1]: very strong smell
Results (inhibition) of tyrosinase (isolated tyrosinase; concentration level 0.01%): more than 80%
Results (inhibition) of tyrosinase (isolated tyrosinase; concentration level 0.1%): 98.10%
Results (inhibition) of tyrosinase (isolated tyrosinase; concentration level 1%): 92.7%
Results (inhibition) of tyrosinase (isolated tyrosinase; concentration level 10%): 100%

O=S([O-])[O-].[Na+].[Na+] [sodium sulfite]
Results (inhibition) of tyrosinase (isolated tyrosinase; concentration level 0.01%): 93.7%
Results (inhibition) of tyrosinase (isolated tyrosinase; concentration level 0.1%): 100%
Results (inhibition) of tyrosinase (isolated tyrosinase; concentration level 1%): 100%
Results (inhibition) of tyrosinase (isolated tyrosinase; concentration level 10%): 100%

O=C1O[C@H]([C@@H](O)CO)C(O)=C1O [ascorbic acid]
IC50 (concentration for which half of the cells placed in culture are no longer living) (human melanocytes): 880 µg/mL
